In patent US10829487B2, “Benzylamino substituted pyridopyrimidinones and derivatives as SOS1 inhibitors” (Boehringer Ingelheim International GmbH, priority 2017, dated 2020):

Legend:
[1] = target: protein-protein interaction between SOS1 and KRAS G12D (Homo sapiens (Human), UniProt Q07889); assay: KRAS::SOS1 AlphaScreen Binding Assay
In short: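 Nucleotide-exchange interaction read by AlphaScreen (GSH acceptor / streptavidin donor beads, 10 μg/mL each): 10 nM KRAS G12D(1-169)-Avi, 10 μM GDP, 5 nM GST-SOS1(564-1049), 1% DMSO. Compound preincubated 30 min, then beads 60 min at RT in the dark; 11-point 1:5 series from 100 μM, duplicates; IC50 by 4-parameter logistic fit.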

CYP3A4 = CYP3A4 (Homo sapiens (Human), UniProt P08684); assay: Time dependent inhibition of CYP3A4 assay (TDI 3A4); assay type: in vitro ADME; conditions: hydroxy-midazolam formation after 30 min relative to 0 min preincubation; 25 uM compound; human liver microsomes; midazolam substrate
Chain of CYP3A4 (P08684 whole entry): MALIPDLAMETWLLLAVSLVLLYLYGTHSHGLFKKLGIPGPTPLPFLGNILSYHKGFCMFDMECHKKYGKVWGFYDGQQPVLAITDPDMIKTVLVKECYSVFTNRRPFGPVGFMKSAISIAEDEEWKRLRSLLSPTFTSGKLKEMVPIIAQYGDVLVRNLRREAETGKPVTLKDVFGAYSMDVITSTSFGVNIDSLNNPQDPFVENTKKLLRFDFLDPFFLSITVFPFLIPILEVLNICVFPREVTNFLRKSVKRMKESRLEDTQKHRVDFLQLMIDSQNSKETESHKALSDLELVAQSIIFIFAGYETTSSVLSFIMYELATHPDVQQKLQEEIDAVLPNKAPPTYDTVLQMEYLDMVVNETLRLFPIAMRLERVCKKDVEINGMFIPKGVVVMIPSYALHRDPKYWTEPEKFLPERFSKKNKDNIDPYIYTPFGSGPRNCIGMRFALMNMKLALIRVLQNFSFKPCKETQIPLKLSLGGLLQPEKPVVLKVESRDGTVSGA
Method: Time Dependent Inhibition of CYP3A4 Assay (TDI 3A4):
After preincubation, the incubate is diluted 1:10 and the substrate midazolam is added for the main incubation (15 min). The main incubation is quenched with acetonitrile and the formation of hydroxy-midazolam is quantified via LC/MS-MS. The formation of hydroxy-midazolam from the 30 min preincubation relative to the formation from the 0 min preincubation is used as a readout. Values of less than 100% mean that the substrate midazolam is metabolized to a lower extend upon 30 min preincubation compared to 0 min preincubation. In general low effects upon 30 min preincubation are desired (corresponding to values close to 100%)

[2] = Metabolic (microsomal) stability assay, rat liver microsomes (RLM); assay type: in vitro ADME; conditions: 1 μM test compound, 37° C.
Method: (§1) Metabolic (Microsomal) Stability Assay: The metabolic degradation of the test compound is assayed at 37° C. with pooled liver microsomes (mouse (MLM), rat (RLM) or human (HLM)). The final incubation volume of 74 μL per time point contains TRIS buffer (pH 7.5; 0.1 M), magnesium chloride (6.5 mM), microsomal protein (0.5 mg/mL for mouse/rat, 1 mg/mL for human specimens) and the test compound at a final concentration of 1 μM. Following a short preincubation period at 37° C., the reactions are initiated by addition of 8 μL beta-nicotinamide adenine dinucleotide phosphate, reduced form (NADPH, 10 mM) and terminated by transfering an aliquot into solvent after different time points. Additionally, the NADPH-independent degradation is monitored in incubations without NADPH, terminated at the last time point by addition of acetonitrile. The quenched incubations are pelleted by centrifugation (1811 g, 5 min). An aliquot of the supernatant is assayed by LC-MS/MS for the amount of parent compound. In vitro intrinsic clearance (CLint, in vitro) is calculated from the time course of the disappearance of the test drug during the microsomal incubation. Each plot is fitted to the first-order elimination rate constant as C(t)=C0*exp(−ke*t), where C(t) and C0 are the concentration of unchanged test drug at incubation time t and that at preincubation and ke is the disappearance rate constant of the unchanged drug. Subsequently, CLint, in vitro (μL min^−1·amount protein) values are converted to CLint, in vitro (mL min^−1·kg^−1) for the whole body. CLint, in vitro data are scaled up using physiological parameters. For better across species comparison the predicted clearance is expressed as percent of the liver blood flow [% QH] in the individual species. In general, high stability (corresponding to low % QH) of the compounds across species is desired.

[3] = Metabolic (microsomal) stability assay, human liver microsomes (HLM); assay type: in vitro ADME; conditions: 1 μM test compound, 37° C.
Method: as §1

[4] = Metabolic (microsomal) stability assay, mouse liver microsomes (MLM); assay type: in vitro ADME; conditions: 1 μM test compound, 37° C.
Method: as §1

[5] = system: ERK phosphorylation in DLD-1 cells (KRAS G13D); assay: ERK Phosphorylation Assay (AlphaLISA SureFire Ultra p-ERK1/2); assay type: cell-based; conditions: Homo sapiens, 1 h compound, EGF 50 ng/mL 10 min, read-out: pERK
Method: ERK Phosphorylation Assay
Low IC50 values are indicative of high potency of the SOS1 inhibitor compounds in this assay setting.
ERK phosphorylation assays are performed using the following human cell lines: DLD-1 (ATCC CCL-221): human colon cancer with a KRAS G13D mutation;
DLD-1 cells (ATCC CCL-221) are seeded at 50,000 cells per well in/60 μL of RPMI with 10% FBS, non-essential amino acids, pyruvate and glutamax in Greiner TC 384 plates. The cells are incubated for 1 h at room temperature and then incubated overnight in an incubator at 37° C. and 5% CO2 in a humidified atmosphere. 60 nL compound solution (10 mM DMSO stock solution) is then added using a Labcyte Echo 550 device. After a 1 h incubation in the aforementioned incubator, 3 μL Epidermal Growth Factor (EGF, final concentration 50 ng/mL) is added. 10 minutes later the medium is removed, and the cells lysed by addition of 20 μL of 1.6-fold lysis buffer from the AlphaLISA SureFire Ultra pERK1/2 (Thr202/Tyr204) Assay Kit with added protease inhibitors, 100 nM trametinib+100 nM staurosporine. After 20 minutes of incubation at room temperature with shaking, 6 μL of each lysate sample is transferred to a 384-well Proxiplate and analyzed for pERK (Thr202/Tyr204) with the AlphaLISA SureFire Ultra pERK1/2 (Thr202/Tyr204) Assay Kit. 3 μL Acceptor Mix and 3 μL Donor Mix are added under subdued light and incubated for 2 h at room temperature in the dark, before the signal is measured on a Perkin Elmer Envision plate reader using 384 AlphaScreen settings for Proxiplates. Data are fitted by iterative calculation with variable hill slope. The sigmoidal curve slope is fitted using a default fitting curve to ascertain IC50 values.

[6] = Table 20, KRAS::SOS1 AlphaScreen (SOS1 / KRAS G12D)
[7] = KRAS G12D::SOS1 AlphaScreen, measured without EDTA unless marked with an asterisk

Chain of protein-protein interaction between SOS1 and KRAS G12D (Q07889 564-1049, stated change not applied): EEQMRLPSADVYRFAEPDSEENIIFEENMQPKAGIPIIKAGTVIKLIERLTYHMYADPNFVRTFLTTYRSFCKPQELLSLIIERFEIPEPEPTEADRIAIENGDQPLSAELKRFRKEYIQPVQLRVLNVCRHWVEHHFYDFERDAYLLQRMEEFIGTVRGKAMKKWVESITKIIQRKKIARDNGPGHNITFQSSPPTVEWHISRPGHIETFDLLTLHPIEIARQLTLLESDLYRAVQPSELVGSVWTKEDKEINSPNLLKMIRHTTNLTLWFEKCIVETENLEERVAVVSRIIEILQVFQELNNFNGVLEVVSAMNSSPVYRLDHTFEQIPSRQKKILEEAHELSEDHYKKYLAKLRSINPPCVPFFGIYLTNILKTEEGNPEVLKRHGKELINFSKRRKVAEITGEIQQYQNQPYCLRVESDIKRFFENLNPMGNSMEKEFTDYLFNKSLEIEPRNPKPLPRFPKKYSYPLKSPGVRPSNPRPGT

| Structure (SMILES) | IC50 [1, 6] | TDI 3A4 [%] (CYP3A4) | RLM [% QH] [2] | HLM [% QH] [3] | MLM [% QH] [4] | IC50 [1, 7] | IC50 [5] |
| --- | --- | --- | --- | --- | --- | --- | --- |
| Cc1nc(N[C@H](C)c2cccc(C(C)(F)F)c2)c2cn(C3(C)CC3)c(=O)cc2n1 [I-50] | 9 nM | 82% | <23 % QH | <24 % QH | <24 % QH |  |  |
| Cc1c(=O)n(C23CC(F)(C2)C3)cc2c(N[C@H](C)c3cccc(C(F)F)c3F)ncnc12 [I-170] |  | 82% | 37 % QH | <24 % QH | 51 % QH | 12 nM |  |
| Cc1c(=O)n(C23CC(C2)C3)cc2c(N[C@H](C)c3cccc(C(F)F)c3F)ncnc12 [I-169] |  | 84% | 44 % QH | <24 % QH | 64 % QH | 12 nM |  |
| Cc1nc(N[C@H](C)c2cccc(C(F)F)c2C)c2cn(C3(C)CCOC3)c(=O)cc2n1 (stereo partly drawn) [I-123] |  | 87% |  |  |  | 3 nM | 118 nM |
| Cc1nc(N[C@H](C)c2cccc3c2CCC3(F)F)c2cn(C3(C)CC3)c(=O)cc2n1 [I-57] | 2 nM | 87% |  |  |  |  | 63 nM |
| Cc1nc(N[C@H](C)c2cccc(C(F)F)c2F)c2cn(C3(C)CC3)c(=O)c(F)c2n1 [I-80] | 9 nM | 86% | <23 % QH | <24 % QH | 50 % QH |  |  |
| Cc1c(=O)n([C@@H]2C[C@H]2C(F)F)cc2c(N[C@H](C)c3cccc(C(F)F)c3F)ncnc12 [I-166] |  | 87% | 38 % QH | 24 % QH | 48 % QH | 26 nM |  |
| Cc1nc(N[C@H](C)c2cccc(C(F)F)c2F)c2cn(C3(CF)CC3)c(=O)c(F)c2n1 [I-81] | 6 nM | 85% | <23 % QH | <24 % QH | 64 % QH |  |  |
| Cc1nc(N[C@H](C)c2cccc(C(F)(F)F)c2C)c2cn(C3CCOCC3)c(=O)cc2n1 [I-49] | 6 nM | 92% |  |  |  |  | 81 nM |
| Cc1nc(N[C@H](C)c2cccc(C(C)(F)F)c2F)c2cn(C3(CF)CC3)c(=O)c(F)c2n1 [I-87] | 4 nM | 81% |  |  |  |  | 100 nM |

The remaining lines, values ahead:

| IC50 [1, 6] | TDI 3A4 [%] (CYP3A4) | RLM [% QH] [2] | HLM [% QH] [3] | MLM [% QH] [4] | IC50 [1, 7] | IC50 [5] | Structure (SMILES) |
| --- | --- | --- | --- | --- | --- | --- | --- |
|  | 88% |  |  |  | 5 nM | 51 nM | Cc1nc(N[C@H](C)c2cccc(C(F)(F)F)c2C)c2cn(C3(C)CCOC3)c(=O)cc2n1 (stereo partly drawn) [I-126] |
| 5 nM | 84% | <23 % QH | <24 % QH | 55 % QH |  |  | Cc1nc(N[C@H](C)c2cccc(C(C)(F)F)c2F)c2cn(C3(C(F)F)CC3)c(=O)cc2n1 [I-54] |
| 13 nM | 90% | <23 % QH | <24 % QH | <24 % QH |  |  | Cc1nc(N[C@H](C)c2cccc(C(F)(F)F)c2)c2cn(C3(C)CC3)c(=O)cc2n1 [I-25] |
| 8 nM | 85% | <23 % QH | <24 % QH | <24 % QH |  |  | Cc1nc(N[C@H](C)c2cccc(C(F)(F)F)c2F)c2cn(C3(C(F)F)CC3)c(=O)cc2n1 [I-98] |
